In ChEMBL document CHEMBL1136903, “Spiroimidazolidinone NPC1L1 inhibitors. 1: Discovery by 3D-similarity-based virtual screening” (Bioorg Med Chem Lett, 2009) one finds IC50 data, which are given here for 6 compounds.

The target of this experiment is T1, NPC1-like intracellular cholesterol transporter 1 (Homo sapiens, UniProt Q9UHC9).
T1 sequence (Q9UHC9 whole entry): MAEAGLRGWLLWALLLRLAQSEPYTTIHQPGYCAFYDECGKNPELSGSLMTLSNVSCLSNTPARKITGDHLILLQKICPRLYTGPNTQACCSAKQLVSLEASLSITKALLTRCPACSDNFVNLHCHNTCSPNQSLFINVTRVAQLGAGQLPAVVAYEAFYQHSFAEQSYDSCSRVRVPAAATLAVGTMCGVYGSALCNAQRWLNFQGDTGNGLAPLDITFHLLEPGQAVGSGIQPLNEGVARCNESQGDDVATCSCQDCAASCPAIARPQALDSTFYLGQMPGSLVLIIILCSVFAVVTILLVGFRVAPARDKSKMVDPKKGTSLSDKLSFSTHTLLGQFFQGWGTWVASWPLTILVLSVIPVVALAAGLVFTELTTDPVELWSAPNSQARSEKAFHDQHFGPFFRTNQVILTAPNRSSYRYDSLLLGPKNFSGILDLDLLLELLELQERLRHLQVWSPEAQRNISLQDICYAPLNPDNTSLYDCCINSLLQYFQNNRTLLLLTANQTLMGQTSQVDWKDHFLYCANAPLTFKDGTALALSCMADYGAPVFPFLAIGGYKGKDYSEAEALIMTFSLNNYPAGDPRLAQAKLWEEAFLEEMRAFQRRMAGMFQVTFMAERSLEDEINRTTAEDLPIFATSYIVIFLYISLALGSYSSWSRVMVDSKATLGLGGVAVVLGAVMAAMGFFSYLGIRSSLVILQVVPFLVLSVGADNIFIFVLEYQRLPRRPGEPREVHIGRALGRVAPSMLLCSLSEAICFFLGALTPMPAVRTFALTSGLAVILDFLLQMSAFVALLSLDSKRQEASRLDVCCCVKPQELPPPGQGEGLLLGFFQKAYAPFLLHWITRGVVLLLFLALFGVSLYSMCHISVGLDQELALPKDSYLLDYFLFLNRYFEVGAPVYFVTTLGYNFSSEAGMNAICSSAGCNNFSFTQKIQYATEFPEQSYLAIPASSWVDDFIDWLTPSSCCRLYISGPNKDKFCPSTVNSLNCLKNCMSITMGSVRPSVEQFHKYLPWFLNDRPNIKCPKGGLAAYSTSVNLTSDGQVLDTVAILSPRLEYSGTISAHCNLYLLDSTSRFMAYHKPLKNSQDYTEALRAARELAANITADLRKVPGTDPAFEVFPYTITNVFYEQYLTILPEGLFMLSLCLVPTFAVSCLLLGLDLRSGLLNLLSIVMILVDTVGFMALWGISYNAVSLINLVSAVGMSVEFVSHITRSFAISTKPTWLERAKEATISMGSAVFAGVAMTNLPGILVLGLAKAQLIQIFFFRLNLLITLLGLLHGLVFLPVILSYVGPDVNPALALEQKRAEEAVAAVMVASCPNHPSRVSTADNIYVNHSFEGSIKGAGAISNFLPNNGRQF
Kind of experiment: Displacement of [35S](2S,3S,4S,5R,6S)-6-(4-((2S,3R)-3-((S)-3-(4-fluorophenyl)-3-hydroxypropyl)-1-(4-(3-(methylsulfonamido)prop-1-ynyl)phenyl)-4-oxoazetidin-2-yl)phenoxy)-3,4,5-trihydroxytetrahydro-2H-pyran-2-carboxylic acid from human recombinant NPC1L1 expressed in HEK293 cells. Type of experiment: cell-based. On the technique in general: Loss of bound radioactivity is the signal in a displacement assay; it reports binding, not function.
With `CC1(C(=O)O)COc2ccc(CCN(CCCCC3CCCCC3)C(=O)Nc3ccc(SC(F)(F)F)cc3)cc2O1` (stereo unspecified), the IC50 – broadly, the point on the concentration scale where inhibition reaches its midpoint – was found to be 4.6 µM.

As to `CC(C)CNC(=O)CN1CN(c2ccccc2)C2(CCN(C(=O)c3ccc(C(C)(C)C)cc3)CC2)C1=O`, the IC50 was found to be 4.4 µM. For `CC(C)(C)c1ccc(C(=O)NS(=O)(=O)N2CC3(CCN(C(=O)OCCc4ccccc4)CC3)c3ccccc32)cc1` the value was 79 µM; for `O=C(c1cccc2ccccc12)N1CC(C(=O)N2CCC3(C=Cc4ccccc43)CC2)CC(c2ccccc2)C1` (stereo unspecified), 0.39 µM; for `Cn1c(N(Cc2ccc(OCCCC(=O)O)cc2)[C@H]2CC[C@H](C(C)(C)C)CC2)nc2cc(OC3CCCC3)ccc21`, 7.4 µM.

Take `Cc1ccc(CCC2CCC(CNC(=O)c3cn[nH]c3)CN2C(=O)OCc2ccccc2)cc1` (stereo unspecified): the IC50 was determined as 81 µM.
